Measured values: patent US20170016875A1, “ANISOTROPIC MUSCULAR TISSUE DEVICES WITH INTEGRATED ELECTRICAL FORCE READOUTS” (President and Fellows of Harvard College, priority 2014, published 2017)

System: neonatal rat ventricular myocytes (NRVM)
Test: spontaneous beating of NRVM muscle tissue layer on cantilever device, resistance readout
Format: cell-based
Conditions: after addition of 10 μM isoproterenol; NRVM muscle tissue layer in incubator, resistance versus time (FIG. 12B)
Experimental: After placement of the wells, neonatal rat ventricular myocytes (NRVM) were seeded at a concentration of 0.3 Mio cells per ml medium, and the contraction of the resulting muscle tissue layers was tested on day 4-5 after seeding. Prior to testing, the cantilevers were released by lowering the sample temperature to room temperature to dissolve the […] sacrificial layer, meaning that the flexible substrate cantilevers were released from the underlying rigid glass substrate after development and growth of the tissue.

CC(C)NCC(O)c1ccc(O)c(O)c1 (stereo not shown) [isoproterenol]
spontaneous beating frequency of the cells: significantly increased
